{"source": "patent US8497380B2", "about": "“Substituted acetophenones useful as PDE4 inhibitors” (Leo Pharma A/S, priority 2006, dated 2013)", "note": "pIC50: −log10 of the molar value.", "data": [{"tested_on": "Human peripheral blood mononuclear cells (PBMC)", "test": "TNFalfa-Release", "assay_type": "cell-based", "settings": "inhibition of TNF-a secretion, PBMC pre-incubated 30 minutes, stimulated 18 hours with lipopolysaccharide", "experimental": "Human peripheral blood mononuclear cells (PBMC) are Isolated from buffy coats. The blood is mixed with saline at a ratio of 1:1, and the PBMC is isolated by the use of Lymphoprep Tubes™ (Nycomed, Norway). The PBMC is suspended in RPMI1640 with 2% foetal calf serum (FCS), pen/strep and 2 mM L-glutamine at a concentration of 5×105 c/ml. The cells are pre-incubated for 30 minutes with the test compounds in 96 well tissue culture plates and stimulated for 18 hours with lipopolysaccharide 1 mg/ml (Sigma). The level of TNF-a is measured in the culture supernatant by enzyme immuno assays using primary and secondary biotinylated antibodies from R&D systems. Results are expressed as pIC50 values calculated from inhibition curves using as positive controls the secretion in LPS stimulated wells and as negative controls the secretion in unstimulated cells.", "values": [{"smiles": "COc1ccc(C(=O)Cc2c(Cl)cncc2Cl)c(O)c1OC", "note": "[Compound 101, 2-(3,5-Dichloro-pyridin-4-yl)-1-(2-hydroxy-3,4-dimethoxy-phenyl)-ethanone]", "pIC50": "> 6.00"}, {"smiles": "CCOc1c(OC)ccc(C(=O)Cc2c(Cl)cncc2Cl)c1OCC", "note": "[Compound 104, 2-(3,5-Dichloro-pyridin-4-yl)-1-(2,3-diethoxy-4-methoxy-phenyl)-ethanone]", "pIC50": "> 6.00"}, {"smiles": "C=CCOc1c(OC)ccc(C(=O)Cc2c(Cl)cncc2Cl)c1OCC=C", "note": "[Compound 106, 1-(2,3-Bis-allyloxy-4-methoxy-phenyl)-2-(3,5-dichloro-pyridin-4-yl)-ethanone]", "pIC50": "> 6.00"}, {"smiles": "COc1ccc(C(=O)Cc2c(Cl)cncc2Cl)c(OC(F)F)c1OC(F)F", "note": "[Compound 107, 1-(2,3-Bis-difluoromethoxy-4-methoxy-phenyl)-2-(3,5-dichloro-pyridin-4-yl)-ethanone]", "pIC50": "> 6.00"}, {"smiles": "COc1ccc(C(=O)Cc2c(Cl)cncc2Cl)c(OCc2cc(C)on2)c1OC", "note": "[Compound 108, 2-(3,5-Dichloro-pyridin-4-yl)-1-[3,4-dimethoxy-2-(5-methyl-isoxazol-3-ylmethoxy)-phenyl]-ethanone]", "pIC50": "> 6.00"}, {"smiles": "COCCOc1c(C(=O)Cc2c(Cl)cncc2Cl)ccc(OC)c1OC", "note": "[Compound 109, 2-(3,5-Dichloro-pyridin-4-yl)-1-[3,4-dimethoxy-2-(2-methoxy-ethoxy)-phenyl]-ethanone]", "pIC50": "> 6.00"}, {"smiles": "CC#CCOc1c(C(=O)Cc2c(Cl)cncc2Cl)ccc(OC)c1OC", "note": "[Compound 110, 1-(2-But-2-ynyloxy-3,4-dimethoxy-phenyl)-2-(3,5-dichloro-pyridin-4-yl)-ethanone]", "pIC50": "> 6.00"}, {"smiles": "COc1ccc(C(=O)Cc2c(Cl)cncc2Cl)c(OCC=C(C)C)c1OC", "note": "[Compound 111, 2-(3,5-Dichloro-pyridin-4-yl)-1-[3,4-dimethoxy-2-(3-methyl-but-2-enyloxy)-phenyl]-ethanone]", "pIC50": "> 6.00"}, {"smiles": "COc1ccc(C(=O)Cc2c(Cl)cncc2Cl)c(OCCc2ccccc2)c1OC", "note": "[Compound 112, 2-(3,5-Dichloro-pyridin-4-yl)-1-(3,4-dimethoxy-2-phenethyloxy-phenyl)-ethanone]", "pIC50": "> 6.00"}, {"smiles": "COc1ccc(C(=O)Cc2c(Cl)cncc2Cl)c(OCc2ccccc2)c1OC", "note": "[Compound 113, 1-(2-Benzyloxy-3,4-dimethoxy-phenyl)-2-(3,5-dichloro-pyridin-4-yl)-ethanone]", "pIC50": "> 6.00"}, {"smiles": "C=CCOc1c(C(=O)Cc2c(Cl)cncc2Cl)ccc(OC)c1OC", "note": "[Compound 114, 1-(2-Allyloxy-3,4-dimethoxy-phenyl)-2-(3,5-dichloro-pyridin-4-yl)-ethanone]", "pIC50": "> 6.00"}, {"smiles": "COc1ccc(C(=O)Cc2c(Cl)cncc2Cl)c(OCc2nc3ccccc3o2)c1OC", "note": "[Compound 115, 1-[2-(Benzooxazol-2-ylmethoxy)-3,4-dimethoxy-phenyl]-2-(3,5-dichloro-pyridin-4-yl)-ethanone]", "pIC50": "> 6.00"}, {"smiles": "COc1ccc(C(=O)Cc2c(Cl)cncc2Cl)c(OCc2csc(C)n2)c1OC", "note": "[Compound 116, 2-(3,5-Dichloro-pyridin-4-yl)-1-[3,4-dimethoxy-2-(2-methyl-thiazol-4-ylmethoxy)-phenyl]-ethanone]", "pIC50": "> 6.00"}, {"smiles": "COc1ccc(C(=O)Cc2c(Cl)cncc2Cl)c(OCc2nnc(C3CC3)s2)c1OC", "note": "[Compound 117]", "pIC50": "> 6.00"}, {"smiles": "COc1ccc(C(=O)Cc2c(Cl)cncc2Cl)c(OCc2ncon2)c1OC", "note": "[Compound 118, 2-(3,5-Dichloro-pyridin-4-yl)-1-[3,4-dimethoxy-2-([1,2,4]oxadiazol-3-ylmethoxy)-phenyl]-ethanone]", "pIC50": "> 6.00"}, {"smiles": "CCOC(=O)COc1c(C(=O)Cc2c(Cl)cncc2Cl)ccc(OC)c1OC", "note": "[Compound 119, {6-[2-(3,5-Dichloro-pyridin-4-yl)-acetyl]-2,3-dimethoxy-phenoxy}-acetic acid ethyl ester]", "pIC50": "> 6.00"}, {"smiles": "COc1ccc(C(=O)Cc2c(Cl)cncc2Cl)c(OCCc2ccc(Cl)cc2)c1OC", "note": "[Compound 120, 1-{2-[2-(4-Chloro-phenyl)-ethoxy]-3,4-dimethoxy-phenyl}-2-(3,5-dichloro-pyridin-4-yl)-ethanone]", "pIC50": "> 6.00"}]}]}
